Reference: US7829562B2, “Sigma ligands for neuronal regeneration and functional recovery” (M's Science Corporation, priority 2003, dated 2010)

Assays:
[1] = target: sigma-1 site compared to the sigma-2 site (Homo sapiens, UniProt Q99720); settings: (+) isomers of benzomorphan opiates; cited from earlier work
[2] = system: rat primary neuronal cultures; settings: cited from earlier work
[3] = system: spontaneously hypertensive rats exposed to permanent middle artery occlusion (MCAO); test: Rotating pole test after MCA occlusion (stroke model); assay type: in vivo, rat; settings: 0.03-10 mg/kg s.c. or p.o. from two days after MCAO for 2-8 weeks; present-tense example
Text: (§1) Male 3 months old SHR (spontaneous hypertensive) rats are used for induction of stroke by MCA occlusion. This is the preferred strain since most stroke patients are hypertensive. The animals are anesthetized with Methohexital and a small craniectomy is made above the zygmotic arch to expose the middle cerebral artery, which is occluded with a 10-0 monofilament nylon thread distal to the origin of the striatal branches. The rats are not intubated and no catheters are inserted. Following MCA occlusion a large and reproducible infarct is obtained, leading to a robust sensorimotor deficit. The animals are kept on a 6 hr light/18 h dark cycle with free access to food and water. At two days after the MCAO the rats are treated with the compound I, II, III, IV, V, VI, VII, VIII, or IX (0.03-10 mg/kg) s.c. or p.o. and a control group is given saline for 2-8 weeks. At 2, 4, 6 and 8 weeks animals are tested in the rotating pole or cylinder test.
Cylinder Test for Asymmetric Use of Forelimb Use in Spontaneous Rearing
Thirty five spontaneously hypertensive rats were exposed to permanent middle artery occlusion (MCAO), then divided into three treatment groups. Starting at two days after occlusion and continuing daily until 28 days after occlusion, AGY-94806 was administered s.c. in doses of 0.3 mg/kg (12 rats) or 1.0 mg/kg (12 rats). In a control group (11 rats), vehicle only was administered. At the start of treatment, and at several time points during the test, the rats were assessed for their performance in the rotating pole model. This model is described in Example 1. It requires the rats to cross a horizontally suspended rotating pole having a length of 1 m. This task measures the sensory-motor performance of the animals. The animals' behaviour was recorded using a video camera and later analyzed and scored by a trained technician. The scoring ranges from 0 to 6, with 0 being very poor performance and 6 reflecting the performance of a healthy animal (without MCAO).

[4] = system: spontaneously hypertensive rats exposed to permanent middle artery occlusion (MCAO); test: Cylinder test for asymmetric forelimb use after MCA occlusion; assay type: in vivo, rat; settings: for performance in cylinder test versus control animals: 0.03-10 mg/kg s.c. or p.o. from two days after MCAO for 2-8 weeks, present-tense example
Text: as §1
The cylinder test (modified from Schallert and Tillerson (Innovative models of CNS disease: from molecule to therapy. Clifton, N.J., Humana, 1999) is used to quantify the forelimb use for rearing on the cylinder wall. The rats are monitored as they move freely in a 20-cm-wide clear glass cylinder. Contacts made by each forepaw with the cylinder wall while rearing are scored by a blinded observer. A total of 20 contacts are recorded for each animal, and the number of impaired (left), both, and non-impaired forelimb contacts as percentage of total contacts is calculated. Baseline for rats is achieved by measuring the contacts made by each forepaw before MCAO.
Forty three spontaneously hypertensive rats were exposed to permanent middle artery occlusion (MCAO), then divided into three treatment groups. Starting at two days after occlusion and continuing daily for 14 days, AGY-94806 was administered p.o. in doses of 0.1 mg/kg (14 rats) or 0.3 mg/kg (14 rats). In a control group (15 rats), vehicle only was administered. At the start of treatment, and at several time points during the test, the rats were assessed for their performance in the cylinder test. This test is described in Example 1. It measures the sensory-motor performance of the animals. The performance of the rats in the test was assessed one day before permanent MCAO, then at 14 days, 28 days and 59 days after permanent MCAO. The rats were monitored as they moved freely in a 20 cm-wide clear glass cylinder. Contacts made by each forepaw with the cylinder wall while rearing were scored by a blinded observer. A total of 20 contacts were recorded for each animal, and the number of impaired (left), both, and non-impaired forelimb contacts as a percentage of total contacts was calculated.

[5] = system: NMDA-induced toxicity and seizures; settings: in vivo models; cited from earlier work
[6] = system: gerbils; settings: cited from earlier work

Chain of sigma-1 site compared to the sigma-2 site (Q99720 whole entry): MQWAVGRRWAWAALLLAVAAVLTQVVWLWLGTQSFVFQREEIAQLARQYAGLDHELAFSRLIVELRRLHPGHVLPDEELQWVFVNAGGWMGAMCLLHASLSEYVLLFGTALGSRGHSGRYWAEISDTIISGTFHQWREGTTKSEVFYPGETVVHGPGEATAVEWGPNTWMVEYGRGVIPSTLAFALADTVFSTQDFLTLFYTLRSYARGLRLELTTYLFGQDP

Structure (SMILES)	performance in rotating pole test versus control animals [3]	performance in cylinder test versus control animals [4]	other results
CC(C)=CCN1CCC2(C)c3cc(O)ccc3CC1C2C (single isomer, unassigned; (+)) [(+)pentazocine]			affinity for the sigma-1 site compared to the sigma-2 site [1]: nearly two orders of magnitude higher affinity
COc1ccc(CCN2CCN(CCCc3ccccc3)CC2)cc1OC [AGY-94806, 1-(3,4-dimethoxyphenethyl)-4-(3-phenylpropyl) piperazine]	perform better	perform better	hypoxia/hypoglycemia-induced neurotoxicity [2]: significantly suppress; asymmetry of paw usage ([4]; 0.3 mg/kg p.o., all time points measured): reduced to pre-MCAO levels
OC(CCCN1CCN(c2ncc(F)cn2)CC1)c1ccc(F)cc1 (stereo not shown) [BMY-14802]			protective effects against NMDA-induced toxicity and seizures [5]: in vivo protective effects
O=C(OCCN1CCOCC1)C1(c2ccccc2)CCCCC1 [III]	perform better	perform better	
O=C(NC1CCN(Cc2ccccc2)CC1)c1ccc(I)cc1 [II]	perform better	perform better	
COc1ccc(CN2CCN(Cc3ccccc3)CC2)c(O)c1OC [IX]	perform better	perform better	
COCCCC/C(=N\OCCN)c1ccc(C(F)(F)F)cc1 [I]	perform better	perform better	
CN(CCc1ccc(Cl)c(Cl)c1)C1CCCCC1N1CCCC1 (stereo not shown) [VIII]	perform better	perform better	
COc1cccc2c1CCC(=O)N2CCCN1CCN(c2cccc(Cl)c2)CC1 [VII]	perform better	perform better	
CCC(C/C=C/c1ccccc1)(c1ccccc1)N(C)CC1CC1 (stereo not shown) [VI]	perform better	perform better	
Fc1ccc(-n2cc(CCCCN3CCC4(CC3)OCc3ccccc34)c3ccccc32)cc1 [V]	perform better	perform better	
CCN(CC)CCOC(=O)C1(c2ccccc2)CCCC1 [caramiphen]			protective effects against NMDA-induced toxicity and seizures [5]: in vivo protective effects
O=C(CCCN1CCC(O)(c2ccc(Cl)cc2)CC1)c1ccc(F)cc1 [haloperidol]			protective effects against NMDA-induced toxicity and seizures [5]: in vivo protective effects
OCCN1CCN(CCCN2c3ccccc3C=Cc3ccccc32)CC1 [opipramol]			protection against ischemia [6]: protect against ischemia
